Laboratory results: ChEMBL document CHEMBL1201862, “PubChem BioAssay data set” (2004)
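Dose response: 5 concentrations. Exposure: 48 h. Format: 96-well plates. Endpoint: linear interpolation; highest concentration if not reached. Abbreviation: GI50, concentration required for 50% inhibition of growth.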 The source made the active and inactive calls. No stated cut-off is given here; in the data, active = GI50 up to about 1.1 µM and inactive = higher.

Experiments:
Experiment in all cases: NCI anticancer screen, dose series, 48 h
ACHN = system: ACHN
DLD-1 = system: DLD-1
HCT-116 = system: HCT-116
HCT-15 = system: HCT-15
HT-29 = system: HT-29
KM12 = system: KM12
MOLT-4 = system: MOLT-4
NCI-H226 = system: NCI-H226
NCI-H522 = system: NCI-H522
OVCAR-8 = system: OVCAR-8
RPMI-8226 = system: RPMI-8226
RXF 393 = system: RXF 393
SK-OV-3 = system: SK-OV-3
SR = system: SR
TK-10 = system: TK-10
U-251 = system: U-251
UACC-257 = system: UACC-257
SF-539 = system: SF-539

Structure (SMILES) | GI50 (ACHN) | GI50 (DLD-1) | GI50 (HCT-116) | GI50 (HCT-15) | GI50 (HT-29) | GI50 (KM12) | GI50 (MOLT-4) | GI50 (NCI-H226) | GI50 (NCI-H522) | GI50 (OVCAR-8) | GI50 (RPMI-8226) | GI50 (RXF 393) | GI50 (SK-OV-3) | GI50 (SR) | GI50 (TK-10) | GI50 (U-251) | GI50 (UACC-257) | GI50 (SF-539)
OCC1OC2c3ccccc3COC2C1OCc1ccccc1 (stereo unspecified) | > 100 µM (inactive) | > 100 µM (inactive) | > 100 µM (inactive) | > 100 µM | > 100 µM (inactive) | > 100 µM (inactive) | > 100 µM (inactive) | > 100 µM (inactive) | 70.1 µM (inactive) | > 100 µM (inactive) | > 100 µM (inactive) | > 100 µM (inactive) | > 100 µM (inactive) | > 100 µM (inactive) | > 100 µM (inactive) | > 100 µM (inactive) | 37 µM (inactive) | –
COc1ccc(Nc2nc3ccc(C(F)(F)F)cc3nc2-c2ccccc2)cc1OC | 28.6 µM (inactive) | 30.5 µM (inactive) | 27.4 µM (inactive) | 15.9 µM | 6.65 µM (inactive) | 21.5 µM (inactive) | 22 µM (inactive) | 28.6 µM (inactive) | 24.7 µM (inactive) | 58.6 µM (inactive) | – | 23 µM (inactive) | > 100 µM (inactive) | 21.4 µM (inactive) | > 10 µM (inactive) | 34.1 µM (inactive) | 38.5 µM (inactive) | 42.6 µM (inactive)
NC1(CCCCCCCCCCC(=O)O)CNCCNCCNCCNC1 | 55.3 µM (inactive) | 40.7 µM (inactive) | 28.1 µM (inactive) | – | 40.8 µM (inactive) | 48.9 µM (inactive) | 30.2 µM (inactive) | – | 55.5 µM (inactive) | 67.3 µM (inactive) | 37.4 µM (inactive) | 27.7 µM (inactive) | 63.8 µM (inactive) | 22.7 µM (inactive) | 31.2 µM (inactive) | – | > 100 µM (inactive) | 54.1 µM (inactive)
O=C(Cc1nc2ccccc2s1)NC12CC3CC(CC(C3)C1)C2 | > 100 µM (inactive) | > 100 µM (inactive) | > 100 µM (inactive) | > 100 µM | > 100 µM (inactive) | > 100 µM (inactive) | > 100 µM (inactive) | > 100 µM (inactive) | > 100 µM (inactive) | > 100 µM (inactive) | – | – | > 100 µM (inactive) | > 100 µM (inactive) | > 100 µM (inactive) | > 100 µM (inactive) | > 100 µM (inactive) | > 100 µM (inactive)
COc1ccc2c(c1)C(=O)N1CCOC1C2C(=O)O (stereo unspecified) | > 100 µM (inactive) | > 100 µM (inactive) | > 100 µM (inactive) | > 100 µM | > 100 µM (inactive) | > 100 µM (inactive) | > 100 µM (inactive) | – | > 100 µM (inactive) | > 100 µM (inactive) | > 100 µM (inactive) | – | > 100 µM (inactive) | > 100 µM (inactive) | > 100 µM (inactive) | > 100 µM (inactive) | > 100 µM (inactive) | > 100 µM (inactive)
CCOC(=O)NC(=O)c1cn(CCN2CCN(C(=O)CNC(=O)CNC(=O)Cn3cc(C(=O)NC(=O)OCC)c(=O)[nH]c3=O)CC2)c(=O)[nH]c1=O | > 100 µM (inactive) | > 100 µM (inactive) | > 100 µM (inactive) | > 100 µM | > 100 µM (inactive) | > 100 µM (inactive) | > 100 µM (inactive) | – | > 100 µM (inactive) | > 100 µM (inactive) | – | – | > 100 µM (inactive) | > 100 µM (inactive) | > 100 µM (inactive) | > 100 µM (inactive) | > 100 µM (inactive) | > 100 µM (inactive)
Cn1c(=O)c2c(nc3n2CCC(=O)N3)n(C)c1=O | > 100 µM (inactive) | > 100 µM (inactive) | – | – | > 100 µM (inactive) | > 100 µM (inactive) | > 100 µM (inactive) | > 100 µM (inactive) | > 100 µM (inactive) | > 100 µM (inactive) | – | > 100 µM (inactive) | > 100 µM (inactive) | > 100 µM (inactive) | > 100 µM (inactive) | > 100 µM (inactive) | > 100 µM (inactive) | > 100 µM (inactive)
